Measured values taken from patent US9340548B2, “Substituted pyrazolo[3,4-a]carbazoles as hepatitis C inhibitors” (priority 2011, dated 2016).

The compounds below were run on HCVpp (HCV E1/E2, isolate Con1) entry into Hep3B2.1-7 cells (assay: microbe, parasite or virus in culture). Details: Hepatitis C virus, 72 h, read-out: EC50 (nM) Example 46.
Format: cell-based
`CC1(C)Cn2cnnc2-c2[nH]c3ccc(C(=O)NCc4ccccn4)cc3c21` [Compound 2001] showed an EC50 of 1400 nM.
Compound `CC1(C)Cc2sc(N)nc2-c2[nH]c3ccc(C(=O)NC4CCS(=O)(=O)C4)cc3c21` (centres unmarked) [Compound 2014] has an EC50 of 280 nM.
For `CC1(C)Cc2c[nH]nc2-c2[nH]c3ccc(C(N)=O)cc3c21` [Compound 1011], the EC50 was 72 nM.
`Cc1nc2c(s1)CC(C)(C)c1c-2[nH]c2ccc(C(=O)NC3CCS(=O)(=O)C3)cc12` (centres unmarked) [Compound 2018] showed an EC50 of 320 nM.
For `CC1(C)Cn2ccnc2-c2[nH]c3ccc(C(=O)NC4CCOCC4)cc3c21` [Compound 2012], the EC50 was 230 nM.
`CC1(C)Cc2cnc(N)nc2-c2[nH]c3ccc(C(=O)NCc4ccccn4)cc3c21` [Compound 2022] gave an EC50 of 1350 nM.
In the case of `COC(=O)c1ccc2[nH]c3c(c2c1)C(C)(C)Cc1c[nH]nc1-3` [Compound 2020], the EC50 is reported as 97 nM.
`Cn1cc2c(n1)-c1[nH]c3ccc(C(=O)NCc4ccccn4)cc3c1C(C)(C)C2` [Compound 2004] showed an EC50 of 109 nM.
Compound `CC1(C)Cc2c[nH]nc2-c2[nH]c3ccc(C(=O)N[C@H]4CCOC4)cc3c21` [Compound 1006] has an EC50 of 112 nM.
`CC1CC2(Cc3c[nH]nc3-c3[nH]c4ccc(C(=O)NCc5ccccn5)cc4c32)C1` (centres unmarked) [Compound 4004] gave an EC50 of 54 nM.
`CC(C)S(=O)(=O)CCNC(=O)c1ccc2[nH]c3c(c2c1)C1(CCC1)Cc1c[nH]nc1-3` [Compound 3011] showed an EC50 of 2.8 nM.
For `O=C(NC1CCN(C(=O)c2ccccn2)C1)c1ccc2[nH]c3c(c2c1)C1(CCC1)Cc1c[nH]nc1-3` (centres unmarked) [Compound 3018], the EC50 was 6.7 nM.
For `Cc1ncc2c(n1)-c1[nH]c3ccc(C(=O)NC4CCS(=O)(=O)C4)cc3c1C(C)(C)C2` (centres unmarked) [Compound 2028], the EC50 was 885 nM.
In the case of `CC1(C)Cc2c[nH]nc2-c2[nH]c3ccc(C(=O)Nc4cccnc4)cc3c21` [Compound 1126], the EC50 is reported as 65 nM.
`CC1(C)c2c[nH]nc2-c2[nH]c3ccc(C(=O)NC4CCN(C(=O)c5ncn[nH]5)C4)cc3c21` (centres unmarked) [Compound 5002] was tested, and the EC50 was 59 nM.
Compound `CC1(C)Cc2c[nH]nc2-c2[nH]c3ccc(C(=O)NC4CCN(C(=O)c5ccccn5)C4)cc3c21` (centres unmarked) [Compound 1015] has an EC50 of 12 nM.
In the case of `CC(C)NC(=O)N1CCC(NC(=O)c2ccc3[nH]c4c(c3c2)C(C)(C)Cc2c[nH]nc2-4)C1` (centres unmarked) [Compound 1118], the EC50 is reported as 19 nM.
